Experimental data: patent US20240343694A1, “PYRIMIDINE DERIVATIVE, METHOD FOR PREPARING SAME, AND PHARMACEUTICAL COMPOSITION FOR PREVENTING OR TREATING CANCER COMPRISING SAME AS ACTIVE INGREDIENT” (KOREA RESERARCH INSTITUTE OF CHEMICAL TECHNOLOGY, priority 2021, published 2024)

Experiments:
EGFR del19 = EGFR del19 (Homo sapiens (Human), UniProt P00533, DEL746-750); test: HTRF inhibitory activity against EGFR mutant enzyme (EGFR del19); assay type: biochemical; conditions: recombinant enzyme, 37° C. for 2 hours
How it was run: (§1)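 IC50 was derived from 7 concentrations by HTRF: Eu-anti-pTyr and streptavidin-XL665 for 1 h at room temperature, with the 615/665 nm ratio read. The kinase reaction ran 2 h at 37 °C in Tris pH 7.5 buffer with ATP (stated 50 mM) and biotinylated peptide (0.5 mM). Enzyme was preincubated with compound before substrate was added.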

EGFR A763_Y764insFHEA = EGFR A763_Y764insFHEA (Homo sapiens (Human), UniProt P00533, INS763FHEA); test: HTRF inhibitory activity against EGFR mutant enzyme (EGFR A763_Y764insFHEA); assay type: biochemical; conditions: recombinant enzyme, 37° C. for 2 hours
How it was run: as §1

HER2 A775_G776insYVMA = HER2 A775_G776insYVMA (Homo sapiens (Human), UniProt P04626, INS775YVMA); test: HTRF inhibitory activity against HER2 mutant enzyme; assay type: biochemical; conditions: recombinant enzyme, 37° C. for 2 hours
How it was run: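 Recombinant HER2 A775_G776insYVMA preincubated with compound, then […] and biotinylated peptide ([…]) added; 2 h at 37 °C in Tris-HCl pH 7.5 buffer with MgCl2, DTT. HTRF detection (Eu anti-phosphotyrosine/streptavidin-XL665); IC50 from 7 concentrations.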

[1] = system: Ba/F3 EGFR D770_N771insSVD; test: Growth inhibition of Ba/F3 EGFR mutant cells (CellTiter-Glo); assay type: cell-based; conditions: Ba/F3 EGFR-D770-N771ins_SVD, 72 hours
How it was run: (§2)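 Ba/F3 cells expressing either EGFR insertion mutant were seeded at 1,000 cells/well and dosed 24 h later at eight concentrations from 0 to 10 μM. After 72 h, viability was read by CellTiter-Glo ATP signal. IC50 (μM) was fitted from the eight-point curves.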

[2] = system: Ba/F3 EGFR V769_D770insASV; test: as above; assay type: cell-based; conditions: 72 hours
How it was run: as §2

[3] = system: Ba/F3 HER2 A775_G776insYVMA; test: Growth inhibition of Ba/F3 HER2 mutant cells (CellTiter-Glo); assay type: cell-based; conditions: Mus musculus, BaF3, 72 hours
How it was run: (§3)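 Ba/F3 cells carrying HER2 A775_G776insYVMA or G776delinsVC were seeded at 1,000 cells/well and dosed 24 h later at 0.01-10 μM (8 concentrations including 0). After 72 h, viability was read as cellular ATP by CellTiter-Glo luminescence, and IC50 values were calculated from the 8-point curves.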

Ba/F3 HER2 G776delinsVC = test: as above; assay type: cell-based; conditions: Mus musculus, BaF3, 72 hours
How it was run: as §3

EGFR del19, sequence (P00533 other isoform, or with tags, fused parts or gaps del 1-668/del 746-750 limits assumed): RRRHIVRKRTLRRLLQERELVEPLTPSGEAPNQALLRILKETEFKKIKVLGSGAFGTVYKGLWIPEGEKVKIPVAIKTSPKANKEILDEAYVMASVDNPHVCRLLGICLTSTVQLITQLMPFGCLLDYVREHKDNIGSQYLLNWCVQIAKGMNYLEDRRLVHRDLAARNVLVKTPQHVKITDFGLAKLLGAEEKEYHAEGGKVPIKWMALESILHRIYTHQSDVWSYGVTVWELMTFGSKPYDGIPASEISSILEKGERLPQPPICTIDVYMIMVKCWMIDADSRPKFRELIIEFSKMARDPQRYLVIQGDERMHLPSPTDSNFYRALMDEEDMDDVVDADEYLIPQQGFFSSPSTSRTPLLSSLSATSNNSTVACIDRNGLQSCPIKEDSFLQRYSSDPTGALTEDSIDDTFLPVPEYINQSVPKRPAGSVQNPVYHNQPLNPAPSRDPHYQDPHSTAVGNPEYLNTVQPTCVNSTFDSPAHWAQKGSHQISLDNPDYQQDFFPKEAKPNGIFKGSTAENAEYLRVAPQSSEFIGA
HER2 A775_G776insYVMA, sequence (P04626 other isoform, or with tags, fused parts or gaps del 1-675/ins YVMA behind 775 limits assumed): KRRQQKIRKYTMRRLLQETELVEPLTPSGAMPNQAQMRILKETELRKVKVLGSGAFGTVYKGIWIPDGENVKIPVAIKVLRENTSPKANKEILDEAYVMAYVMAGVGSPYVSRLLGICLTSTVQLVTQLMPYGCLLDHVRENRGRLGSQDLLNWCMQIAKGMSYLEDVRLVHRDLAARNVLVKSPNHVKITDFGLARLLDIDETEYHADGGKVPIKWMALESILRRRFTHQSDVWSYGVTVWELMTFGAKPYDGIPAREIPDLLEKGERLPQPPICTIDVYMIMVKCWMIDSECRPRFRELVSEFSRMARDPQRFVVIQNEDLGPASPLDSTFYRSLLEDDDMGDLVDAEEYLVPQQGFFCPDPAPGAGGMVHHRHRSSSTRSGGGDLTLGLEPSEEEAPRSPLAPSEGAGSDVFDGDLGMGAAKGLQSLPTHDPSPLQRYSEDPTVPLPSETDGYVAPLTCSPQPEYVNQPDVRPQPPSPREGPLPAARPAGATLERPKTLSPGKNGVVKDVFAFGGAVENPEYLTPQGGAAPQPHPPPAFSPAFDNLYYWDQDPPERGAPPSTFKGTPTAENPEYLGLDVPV
EGFR A763_Y764insFHEA, sequence (P00533 other isoform, or with tags, fused parts or gaps del 1-694/ins FHEA behind 763 limits assumed): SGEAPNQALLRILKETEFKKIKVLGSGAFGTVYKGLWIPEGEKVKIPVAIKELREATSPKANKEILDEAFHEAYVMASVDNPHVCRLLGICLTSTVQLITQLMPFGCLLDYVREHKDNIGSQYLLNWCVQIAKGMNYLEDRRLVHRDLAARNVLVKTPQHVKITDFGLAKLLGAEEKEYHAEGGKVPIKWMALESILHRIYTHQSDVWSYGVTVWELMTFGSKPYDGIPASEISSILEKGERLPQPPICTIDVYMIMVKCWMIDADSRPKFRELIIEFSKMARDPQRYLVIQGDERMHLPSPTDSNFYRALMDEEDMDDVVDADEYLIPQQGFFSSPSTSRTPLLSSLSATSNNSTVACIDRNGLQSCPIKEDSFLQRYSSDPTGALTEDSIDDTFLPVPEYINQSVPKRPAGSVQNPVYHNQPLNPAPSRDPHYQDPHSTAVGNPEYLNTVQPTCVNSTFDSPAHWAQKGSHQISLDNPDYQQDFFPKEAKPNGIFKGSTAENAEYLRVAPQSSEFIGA

Row | SMILES | IC50 (EGFR del19) [nM] | IC50 (EGFR A763_Y764insFHEA) [nM] | IC50 (HER2 A775_G776insYVMA) [nM] | IC50 [1] [nM] | IC50 [2] [nM] | IC50 [3] [nM] | IC50 (Ba/F3 HER2 G776delinsVC) [nM]
1 | C=CC(=O)Nc1cc(Nc2ncc(C#N)c(Nc3cccc4c3N(C(C)=O)CC4)n2)c(OC)cc1N(C)CCN(C)C [Example 99, N-(5-((4-((1-acetylindolin-7-yl)amino)-5-cyanopyrimidin-2-yl)amino)-2-((2-(dimethylamino)ethyl)(methyl)amino)-4-methoxyphenyl)acrylamide] | 1 | 3 | 19 | 10 to 30 | 10 to 30 | 10 to 30 | < 10
2 | C=CC(=O)Nc1cc(Nc2nccc(Nc3cccc4c3N(C(C)=O)CC4)n2)c(OC)cc1N(C)CCN(C)C [Example 100, N-(5-((4-((1-acetylindolin-7-yl)amino)pyrimidin-2-yl)amino)-2-((2-(dimethylamino)ethyl)(methyl)amino)-4-methoxyphenyl)acrylamide] | 3 | 9 | 225 | 10 to 30 | 10 to 30 | > 100 | < 10
